Test results reported in patent publication US20150283239A1, “GRAPHENE DERIVATIVE-BASED COMPOSITION FOR DRUG DELIVERY AND PREPARATION METHOD THEREOF” (Research & Business Foundation SUNGKYUNKWAN UNIVERSITY, priority 2014, published 2015).

Tests used:
[1] = test system: HCT116 tumors; test: In vivo drug delivery, tumor volume in HCT116 xenograft mice; parameters: species or system Balb/c female nude mice; conditions: 14 days, intratumoral single dose 10 mg/kg
Experimental: Six (6) to seven (7)-week-old Balb/c female nude mice (weight of 21 g to 25 g) were purchased from Orient Bio Inc., (Seoul, Korea), and were maintained in a 12-hour light/12-hour darkness cycle (12:12LD) at a temperature of 22° C. to 24° C., in humidity of 40% to 60%, and with food and water ad libitum. HCT116 was trypsinized, washed twice with serum-free DMEM, and dispersed at a density of 1×10^7 cells/mL PBS. […] of the dispersed cells was subcutaneously injected into the right back region of the mice. After the tumor size reached about 150 mm^3, the mice were randomly divided into six (6) groups depending on differences in the minimum weight and tumor size. The mice were intratumorally injected with physiological saline, DGO, GQD, Cur, DGO-Cur, and GQD-Cur dispersions at a total dose of 10 mg/kg. The tumor size of each of the groups was measured by a caliper, and the tumor volume was calculated by using the following equation: tumor volume=ab^2×0.5236, where ‘a’ is the maximum diameter of tumor, and ‘b’ is the minimum diameter of tumor. Relative tumor volumes were calculated as V/V0 (V0 was the tumor volume when the treatment was initiated).
Experimental female nude mice bearing subcutaneous xenografts were divided into groups and intratumorally injected with a single dose of each of physiological saline, pure DGO and GQDs, free Cur, or DGO-Cur and GQD-Cur composites. […]

[2] = test system: HCT116 cells; test: In vitro cytotoxicity, MTT analysis; assay type: cell-based, Human; conditions: HCT116, 100 μg/mL, 24 hours
Experimental: Human colon cancer cells (HCT116) were maintained in a Dulbecco's modified Eagle medium (DMEM), and supplemented with 10% fetal bovine serum (FBS) and antibiotics (10,000 μg/mL streptomycin and 10,000 unit/mL penicillin) at 37° C. in a humidified atmosphere containing 5% CO2(v/v).
In vitro cytotoxicity was measured by using standard colorimetric 3-(4,5-dimethylthiazol-2-yl)-2,5-diphenyl tetrazolium bromide (MTT) analysis. For the MTT analysis, HCT116 cells were seeded in a 96-well cell-culture plate at 1×10^4/well, and cultured for 12 hours at 37° C. under 5% CO2. Thereafter, the HCT116 cells were cultured for 24 hours by using various concentrations ([…], 12.5, 25, 50, and 100 μg/mL) of GO, DGO, GQD, Cur, GO-Cur, DGO-Cur, and GQD-Cur. Next, 20 μl stock MTT (5 mg/mL) was added to each of the cells, and the cells were cultured under 5% CO2 at 37° C. for 4 hours. After the culture for additional 4 hours, the resulting formazan crystals were dissolved in dimethyl sulfoxide (DMED, 100 μl), and absorbance intensity was measured by a microplate reader at 570 nm. All the experiments were conducted in quadruplicate, and the relative cell viability (%) was expressed as a percentage relative to untreated control cells.

SMILES: COc1cc(/C=C/C(=O)CC(=O)/C=C/c2ccc(O)c(OC)c2)ccc1O [Cur, Curcumin]
- inhibition of tumor proliferation [1]: tumor proliferation was initially inhibited to some extent
- cancer cells dead [2]: about 70%
